This note sets out measurements from ChEMBL document CHEMBL3112496, “C1,C2-ether derivatives of the Amaryllidaceae alkaloid lycorine: retention of activity of highly lipophilic analogues against cancer cells” (Bioorg Med Chem Lett, 2014).

A short description of series [1]: Growth inhibition of human Hs683 cells by MTT assay. It is filed as functional. The settings on record: Hs 683. In general terms: Tetrazolium dyes change colour on reduction, which living cells bring about.
In the next series the test system is T98G. Put plainly: Growth inhibition of human T98G cells by MTT assay. The class given is functional.
The next series concerns B16-F10. Put plainly: Growth inhibition of mouse B16F10 cells by MTT assay. The class given is functional.
The next series concerns MCF7. Put plainly: Growth inhibition of human MCF7 cells by MTT assay. It is filed as functional.
For the next series, the system named is SK-MEL-28. Put plainly: Growth inhibition of human SK-MEL-28 cells by MTT assay. The class given is functional.
The subject of the next series is A549. Put plainly: Growth inhibition of human A549 cells by MTT assay. The class given is functional.
Series [2] can be described thus: Lipophilicity, log P of the compound. The settings on record: octanol/water. The class given is physicochemical.

Take `C1=C2CCN3Cc4cc5c(cc4[C@H]([C@H](OC/C=C/c4ccccc4)[C@H]1OC/C=C/c1ccccc1)[C@@H]23)OCO5`: the GI50 (commonly the concentration that inhibits growth by half) turned out to be 11 µM in series [1]; 22 µM in the series on T98G; 4.2 µM with B16-F10; 4.2 µM in the series with MCF7; 8.7 µM with SK-MEL-28; 5.5 µM with A549.
With `O[C@H]1[C@H]2c3cc4c(cc3CN3CCC(=C[C@@H]1OC/C=C/c1ccccc1)[C@H]23)OCO4`, the GI50 in series [1] is 8.6 µM; with T98G, 10 µM; in the series on B16-F10 it was 4.2 µM; in the series on MCF7, 3.8 µM; in the series with SK-MEL-28, 14 µM; in the series with A549, 1.5 µM.
Turning to `C1=C2CCN3Cc4cc5c(cc4[C@H]([C@H](OCC4CC4)[C@H]1OCC1CC1)[C@@H]23)OCO5`, in series [2], the logP (as a rule, a log measure of how a compound divides between an organic and an aqueous phase) worked out at 1.19. Further, the GI50 in series [1] turned out to be 23 µM; with T98G it was 37 µM; in the series on B16-F10 it was 27 µM; with MCF7, 28 µM; with SK-MEL-28, 33 µM; in the series with A549, 4.2 µM.
`C=CCO[C@H]1[C@H]2c3cc4c(cc3CN3CCC(=C[C@@H]1O[Si](C(C)C)(C(C)C)C(C)C)[C@H]23)OCO4`: the GI50 in series [1] worked out at 7.6 µM; in the series on T98G it was 6.6 µM; in the series with B16-F10, 0.8 µM; in the series on MCF7 it was 5 µM; in the series with SK-MEL-28, 2.4 µM; in the series on A549 it was 4.5 µM.
As for `C#CCO[C@H]1[C@H]2c3cc4c(cc3CN3CCC(=C[C@@H]1O[Si](C(C)C)(C(C)C)C(C)C)[C@H]23)OCO4`, the GI50 in series [1] was found to be 27 µM; in the series on T98G it was 4.9 µM; with B16-F10 it was 6.2 µM; in the series with MCF7 it was 8.3 µM; in the series with SK-MEL-28 it was 8.2 µM; in the series on A549, 3.6 µM.
For the compound `CO[C@H]1C=C2CCN3Cc4cc5c(cc4[C@H]([C@@H]1O)[C@@H]23)OCO5` [HIPPPAMINE], the GI50 in series [1] was 36 µM; with T98G, 84 µM; with B16-F10 it was 40 µM; with MCF7, greater than 100 µM; with SK-MEL-28 it was 92 µM; in the series with A549 it was 31 µM.
As to `O[C@H]1[C@H]2c3cc4c(cc3CN3CCC(=C[C@@H]1O)[C@H]23)OCO4` [LYCORINE], in series [2], the logP is -0.78. Besides, the GI50 came out at 2.1 µM in series [1]; 5.2 µM in the series on T98G; 2.6 µM with B16-F10; 10.9 µM with MCF7; 3.7 µM with SK-MEL-28; 3 µM in the series with A549.
